From patent US9504676B2, “Molecules inhibiting a metabolic pathway involving the Syk protein tyrosine kinase and method for identifying said molecules” (CENTRE NATIONAL DE LA RECHERCHE SCIENTIFIQUE, priority 2008, dated 2016) come the findings set out here.

Converted amounts (≈) assume the structure as drawn. Where only a bound is given, the exact number is not on record here.

Assay [1] concerns RBL-2H3 cells. In words: cells. To be noted: Rattus norvegicus; RBL-2H3 cells; read-out: Degran. IC50: concentration inhibiting mast cell degranulation by 50%. In kind it is cell-based, rat. In a few lines: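 RBL-2H3 rat basophils sensitized 12-16 h with anti-DNP IgE (0.5 μg/ml), pretreated 90 min at 37° C with compound (DMF 0.25% vehicle), then stimulated 45 min with DNP-BSA (50 ng ml^−1) or ionomycin (1.5 μM). Degranulation read as β-hexosaminidase release.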

Assay [2] has as its target T1, murine Syk tyrosine kinase protein (GST:Syk 6-242) (Mus musculus, UniProt P48025).
T1 construct: made in house
In words: ADA method: displacement of the binding of scFv G4G11 with Syk (ELISA). The conditions noted are these: small molecules at 10 μM, scFv G4G11 100 nM; read-out: In vit. inhib.: mean inhibition % of the binding of scFv G4G11 with Syk in the ADA method. In a few lines:
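GST:Syk 6-242 (murine) was immobilised at 10 μg ml^−1 and pre-incubated 1 h at ambient temperature with compounds at 10 μM final in PBS. scFv G4G11 was then added at 100 nM for 1 h. Bound scFv was detected via its C-terminal c-myc tag with HRP-9E10, and % inhibition was taken from signals with versus without compound.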
(In an ELISA, binding on a coated surface is turned into a signal by an enzyme label.)

As a reminder, the inhibition is the relative decrease from the control value, in per cent. With `COc1cccc(C2C(C(=O)c3cc(C)ccc3C)=C(O)C(=O)N2CCCN2CCOCC2)c1OC` (stereo not shown) [Molecule 56, 5-(2,3-dimethoxyphenyl)-4-(2,5-dimethylbenzoyl)-3-hydroxy-1-[3-(4-morpholinyl)propyl]-1,5-dihydro-2H-pyrrol-2-one], the IC50 in assay [1] was about 10 µg/mL (≈ 20.2 µM). Also, the inhibition at 10 µM in assay [2] was 42%.
Taken in the same sequence, the figures for `N#CC1=C(N)Oc2[nH]nc(-c3ccccc3)c2C1c1cccc(OC(=O)c2ccco2)c1` (stereo not shown) [Molecule 57, 3-(6-amino-5-cyano-3-phenyl-1,4-dihydropyrano[2,3-c]pyrazol-4-yl)phenyl 2-furoate] were over 10 µg/mL and 42%.
Taken in the same sequence, the figures for `Cc1cc(C)c(OCC(=O)N2CCN(C(=O)COc3c(C)cc(C)cc3C)CC2)c(C)c1` [Molecule 58, 1,4-bis [(mesityloxy)acetyl] piperazine] were about 10 µg/mL (≈ 22.8 µM) and 40%.
In the case of `CCOC(=O)c1c(-c2ccccc2)oc2ccc(OC(C(=O)O)c3ccccc3)cc12` (stereo not shown) [Molecule 60, {[3-(ethoxy carbonyl)-2-phenyl-1-benzofuran-5-yl]oxy} (phenyl) acetic acid], the IC50 in assay [1] is over 10 µg/mL. In addition, the inhibition at 10 µM in assay [2] was determined as 40%.
For the compound `O=C1c2ccc(Oc3ccc4c(c3)C(=O)N(CC3CCCO3)C4=O)cc2C(=O)N1CC1CCCO1` (stereo not shown) [Molecule 62, 5,5′-oxybis [2-(tetrahydro-2-furanyl methyl)-1H-isoindole-1,3(2H)-dione]], in assay [1], the IC50 is over 10 µg/mL. The inhibition at 10 µM in assay [2] stood at 38.5%.
Taken in the same sequence, the figures for `CSc1nnc2c(n1)OC(c1cccc(OCc3ccccc3)c1)N(C(C)=O)c1ccccc1-2` (stereo not shown) [Molecule 63, 7-acetyl-6-[3-(benzyloxy)phenyl]-3-(methylthio)-6,7-dihydro [1,2,4] triazino[5,6-d][3,1] benzoxazepine] were about 5 µg/mL (≈ 10.6 µM) and 38.5%.
The corresponding values for `COc1cccc2cc(C(=O)C3=C(O)C(=O)N(CCCn4ccnc4)C3c3ccccn3)oc12` (stereo not shown) [Molecule 64] are over 10 µg/mL and 37.5%.
The corresponding values for `CN(C)S(=O)(=O)c1ccc(C(=O)C2=C(O)C(=O)N(CCCN3CCOCC3)C2c2cccnc2)cc1` (stereo not shown) [Molecule 65, 4-{[4-hydroxy-1-[3-(4-morpholinyl)propyl]-5-oxo-2-(3-pyridinyl)-2,5-dihydro-1H-pyrrol-3-yl]carbonyl}-N,N-dimethylbenzenesulphonamide] are over 10 µg/mL and 37%.
For the compound `Cc1ccc(-c2nnc(Nc3cccc(O)c3)c3ccccc23)cc1S(=O)(=O)NC(C)(C)CO` [Molecule 67, N-(2-hydroxy-1,1-dimethylethyl)-5-{4-[(3-hydroxyphenyl)amino]-1-phthalazinyl}-2-methylbenzenesulphonamide], the IC50 in assay [1] is over 10 µg/mL. Also, the inhibition at 10 µM in assay [2] amounted to 32%.
On to `O=C(C1=C(O)C(=O)N(CCCN2CCOCC2)C1c1ccccc1F)c1ccc2c(c1)OCO2` (stereo not shown) [Molecule 68, 4-(1,3-benzodioxol-5-ylcarbonyl)-5-(2-fluorophenyl)-3-hydroxy-1-[3-(4-morpholinyl)propyl]-1,5-dihydro-2H-pyrrol-2-one], for which the IC50 in assay [1] was about 10 µg/mL (≈ 21.3 µM). Further, in assay [2], the inhibition at 10 µM turned out to be 30%.
Taken in the same sequence, the figures for `COc1ccc(NC(=O)CSc2nc3ccccc3c(=O)n2Cc2ccco2)c(OC)c1` [Molecule 69] were about 5 µg/mL (≈ 11.1 µM) and 30%.
Taken in the same sequence, the figures for `COc1cccc(C(=O)N(Cc2cc3ccc(C)cc3nc2C)c2ccccc2OC)c1` [Molecule 70] were over 10 µg/mL and 30%.
The corresponding values for `COc1cccc(C2C(C(=O)c3ccc(Cl)cc3)=C(O)C(=O)N2CCN2CCOCC2)c1` (stereo not shown) [Molecule 71, 4-(4-chlorobenzoyl)-3-hydroxy-5-(3-methoxyphenyl)-1-[2-(4-morpholinyl)ethyl]-1,5-dihydro-2H-pyrrol-2-one] are over 10 µg/mL and 29%.
Turning to `COc1ccc(OCC(=O)NCc2cc(-c3nn(C)c(=O)c4ccccc34)ccc2C)cc1` [Molecule 72, 2-(4-methoxyphenoxy)-N-[2-methyl-5-(3-methyl-4-oxo-3,4-dihydro-1-phthalazinyl)benzyl]acetamide], the IC50 in assay [1] is about 10 µg/mL (≈ 22.5 µM). The inhibition at 10 µM in assay [2] turned out to be 28%.
For `COc1ccc(C2(CNC(=O)c3ccc(NC(=O)c4ccco4)cc3)CCOCC2)cc1` [Molecule 73, N-{4-[({[4-(4-methoxyphenyl)tetrahydro-2H-pyran-4-yl]methyl}amino)carbonyl]phenyl}-2-furamide], the IC50 in assay [1] was over 10 µg/mL. In assay [2], the inhibition at 10 µM was 28%.
As for `COc1cccc(C2C(C(=O)c3ccccc3)=C(O)C(=O)N2CCCN2CCOCC2)c1OC` (stereo not shown) [Molecule 74, 4-benzoyl-5-(2,3-dimethoxyphenyl)-3-hydroxy-1-(3-(4-morpholinyl)propyl]-1,5-dihydro-2H-pyrrol-2-one], the IC50 in assay [1] is over 10 µg/mL. Moreover, the inhibition at 10 µM in assay [2] is 27.5%.
Taken in the same sequence, the figures for `O=C(Nc1cccc2ccccc12)OCCn1nnnc1C1(N2CCOCC2)CCCCC1` [Molecule 76, 2-{5-[1-(4-morpholinyl)cyclohexyl]-1H-tetrazol-1-yl}ethyl 1-naphthylcarbamate] were over 10 µg/mL and 27%.
The corresponding values for `COC(=O)c1ccc(NC(=O)CC2C(=O)N(c3ccccc3)C(=O)N2Cc2ccc3c(c2)OCO3)cc1` (stereo not shown) [Molecule 77, methyl 4-({[3-(1,3-benzodioxol-5-ylmethyl)-2,5-dioxo-1-phenyl-4-imidazolidinyl]acetyl}amino)benzoate] are over 10 µg/mL and 26%.
Taken in the same sequence, the figures for `O=C(Nc1ccccc1C(=O)N1CCCC1)c1ccc(CN2CCc3ccccc3C2)cc1` [Molecule 78, 4-(3,4-dihydro-2(1H)-isoquinolinyl-methyl)-N-[2-(1-pyrrolidinylcarbonyl)phenyl]benzamide] were over 10 µg/mL and 25%.
Take `CCN1C2=C(C(=O)CCC2)C(c2ccc(OCc3ccc(C)cc3)c(Cl)c2)C2=C1CCCC2=O` [Molecule 79]: the IC50 in assay [1] is over 10 µg/mL. For the same compound, the inhibition at 10 µM in assay [2] was determined as 25%.
Taken in the same sequence, the figures for `CCOC(=O)C1CCN(C(=O)c2ccc(CN(c3ccc(C)c(C)c3)S(C)(=O)=O)cc2)CC1` [Molecule 80, ethyl 1-(4-{[(3,4-dimethylphenyl) (methyl sulphonyl)amino]methyl}benzoyl)-4-piperidine carboxylate] were over 10 µg/mL and 24.5%.
On to `COC(=O)c1ccc(NC(=O)CN(c2cccc(OC)c2)S(=O)(=O)c2ccccc2)cc1` [Molecule 81], for which the IC50 in assay [1] is over 10 µg/mL. In addition, in assay [2], the inhibition at 10 µM is 20%.
The corresponding values for `O=C(C1=C(O)C(=O)N(CCCN2CCOCC2)C1c1ccncc1)c1ccc2c(c1)OCCO2` (stereo not shown) [Molecule 83, 4-(2,3-dihydro-1,4-benzodioxin-6-ylcarbonyl)-3-hydroxy-1-[3-(4-morpholinyl)propyl]-5-(4-pyridinyl)-1,5-dihydro-2H-pyrrol-2-one] are about 10 µg/mL (≈ 21.5 µM) and 19%.
`COc1cccc2cc(C(=O)C3=C(O)C(=O)N(CCN4CCOCC4)C3c3cccc(Br)c3)oc12` (stereo not shown) [Molecule 85, 5-(3-bromophenyl)-3-hydroxy-4-[(7-methoxy-1-benzofuran-2-yl)carbonyl]-1-[2-(4-morpholinyl)ethyl]-1,5-dihydro-2H-pyrrol-2-one]: in assay [1], the IC50 was about 10 µg/mL (≈ 18.5 µM). Moreover, in assay [2], the inhibition at 10 µM is 18%.
Consider `CCN(CC)CCCN1C(=O)C(O)=C(C(=O)c2cc3cccc(OC)c3o2)C1c1ccccn1` (stereo not shown) [Molecule 86, 1-[3-(diethylamino)propyl]-3-hydroxy-4-[(7-methoxy-1-benzofuran-2-yl)carbonyl]-5-(2-pyridinyl)-1,5-dihydro-2H-pyrrol-2-one], for which the IC50 in assay [1] is about 10 µg/mL (≈ 21.6 µM). Further, the inhibition at 10 µM in assay [2] turned out to be 17%.
Taken in the same sequence, the figures for `Cc1ccc(-c2nnc(N3CCN(C(=O)CSc4nc(C)cc(C)n4)CC3)c3ccccc23)cc1` [Molecule 87, 1-(4-{[(4,6-dimethyl-2-pyrimidinyl)thio]acetyl}-1-piperazinyl)-4-(4-methylphenyl) phthalazine] were about 5 µg/mL (≈ 10.3 µM) and 11%.
